Patent US10633407B2, “14-membered ketolides and methods of their preparation and use” (President and Fellows of Harvard College, priority 2014, dated 2020)
Values after ≈ are worked out from the molar mass of the structure shown. Like-named read-outs stand apart in the source and are kept apart here.

What was measured:
[1] = ester bond, chlorobenzene, 1.0 mM, 150.0 °C, 16.0 h
[2] = system: K. pneumoniae ATCC 10031; test: CLSI broth dilution MIC determination; assay type: cell-based; settings: Klebsiella pneumoniae, ATCC10031, K. pneumoniae ATCC 10031 (MP-14); read-out: MIC
[3] = system: K. pneumoniae MP-548 clinical; test: CLSI broth dilution MIC determination; assay type: cell-based; settings: Klebsiella pneumoniae, MP548CLINICAL, read-out: MIC
[4] = system: P. aeruginosa MP-8 PAO1:mex (mex-oprM-deletion); test: CLSI broth dilution MIC determination; assay type: cell-based; settings: Pseudomonas aeruginosa, PAO1
[5] = system: A. baumannii MP-577 Clinical-AZT low; test: CLSI broth dilution MIC determination; assay type: cell-based; settings: Acinetobacter baumannii, read-out: MIC
[6] = system: S. pyogenes ATCC 19615; test: CLSI broth dilution MIC determination; assay type: cell-based; settings: Streptococcus pyogenes, ATCC19615, S. pyogenes ATCC 19615 (MP-19); read-out: MIC
[7] = system: strains of B. subtilis, E. coli, S. aureus, S. pneumoniae, and H. influenzae, including several multidrug-resistant strains; test: CLSI broth dilution MIC determination, whole panel of strains; assay type: cell-based; settings: from MIC data, Tables B1-B13
From the text: MIC data was collected for the novel macrolides that this platform has produced against over 21 unique strains of B. subtilis, E. coli, S. aureus, S. pneumoniae, and H. influenzae, including several multidrug-resistant strains, with a special focus on macrolide resistant mechanisms (vide supra). Azithromycin (Azithro) and Solithromycin (Solithro) were included as a control macrolides in many cases. CLSI standard procedures for broth dilution MIC determination were used. […] These genotypes can be constitutive or inducible.

[8] = system: S. pyogenes Macrolide-resistant; test: CLSI broth dilution MIC determination; assay type: cell-based; settings: Streptococcus pyogenes, S. pyogenes Macrolide-resistant (MP-625 UNT-014); read-out: MIC
[9] = system: K. pneumoniae MP-546 Clinical-MDR; test: CLSI broth dilution MIC determination; assay type: cell-based; settings: Klebsiella pneumoniae, read-out: MIC
[10] = system: A. baumannii ATCC 19606; test: CLSI broth dilution MIC determination; assay type: cell-based; settings: Acinetobacter baumannii, ATCC19606; A. baumannii ATCC 19606 (MP-15); read-out: MIC
[11] = system: S. pneumoniae mef A genotype (first strain so labelled); test: CLSI broth dilution MIC determination; assay type: cell-based; settings: Streptococcus pneumoniae, first strain (MP-626 UNT-038)
Summary of the method: (§1)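 Broth dilution MICs determined by CLSI standard procedures across a strain panel that includes multidrug- and macrolide-resistant strains. Resistance genotypes may be constitutive or inducible.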

[12] = system: S. aureus ATCC 29213; test: CLSI broth dilution MIC determination; assay type: cell-based; settings: Staphylococcus aureus, ATCC29213; S. aureus ATCC 29213 (MP-12); read-out: MIC
Summary of the method: as §1

[13] = system: S. pneumoniae ATCC 49619; test: CLSI broth dilution MIC determination; assay type: cell-based; settings: Streptococcus pneumoniae, ATCC49619, S. pneumoniae ATCC 49619 (MP-21); read-out: MIC
Summary of the method: as §1

[14] = system: S. aureus (MRSA) MP-513 ST-228 cErm (Clinical-cErm); test: CLSI broth dilution MIC determination; assay type: cell-based; settings: Staphylococcus aureus, read-out: MIC
Summary of the method: as §1

[15] = system: S. aureus USA600, GISA; test: CLSI broth dilution MIC determination; assay type: cell-based; settings: Staphylococcus aureus; S. aureus USA600, GISA (MP-619 UNT-120); read-out: MIC
Summary of the method: as §1

[16] = system: E. coli MP-9 ATCC25922:tolC; test: CLSI broth dilution MIC determination; assay type: cell-based; settings: Escherichia coli, ATCC25922
Summary of the method: as §1

[17] = system: S. aureus MRSA: USA100; test: CLSI broth dilution MIC determination; assay type: cell-based; settings: Staphylococcus aureus; S. aureus MRSA: USA100 (MP-618 UNT-096); read-out: MIC
Summary of the method: as §1

[18] = system: E. coli MP-541 clinical; test: CLSI broth dilution MIC determination; assay type: cell-based; settings: Escherichia coli, MP541CLINICAL, read-out: MIC
Summary of the method: as §1

[19] = system: S. aureus MRSA: USA300; test: CLSI broth dilution MIC determination; assay type: cell-based; settings: Staphylococcus aureus; S. aureus MRSA: USA300 (MP-549, msr(a)); read-out: MIC
Summary of the method: as §1

[20] = system: S. aureus MP-17 ATCCBAA-977 (BAA 977 iErm); test: CLSI broth dilution MIC determination; assay type: cell-based; settings: Staphylococcus aureus; S. aureus MP-17, ATCCBAA-977, iErm; read-out: MIC
Summary of the method: as §1

[21] = system: S. pneumoniae mef A genotype (second strain so labelled); test: CLSI broth dilution MIC determination; assay type: cell-based; settings: Streptococcus pneumoniae, second strain (MP-627 UNT-039), read-out: MIC
Summary of the method: as §1

[22] = system: E. coli ATCC 25922; test: CLSI broth dilution MIC determination; assay type: cell-based; settings: Escherichia coli, ATCC25922, E. coli ATCC 25922 (MP-4); read-out: MIC
Summary of the method: as §1

[23] = system: S. aureus erm A genotype; test: CLSI broth dilution MIC determination; assay type: cell-based; settings: Staphylococcus aureus; S. aureus erm A genotype (MP-620 UNT-146); read-out: MIC
Summary of the method: as §1

[24] = system: E. coli MP-532 clinical-cErmB; test: CLSI broth dilution MIC determination; assay type: cell-based; settings: Escherichia coli
Summary of the method: as §1

[25] = system: P. aeruginosa ATCC 27853; test: CLSI broth dilution MIC determination; assay type: cell-based; settings: Pseudomonas aeruginosa, ATCC27853; P. aeruginosa ATCC 27853 (MP-3); read-out: MIC
[26] = system: P. aeruginosa MP-7 PAO1; test: CLSI broth dilution MIC determination; assay type: cell-based; settings: Pseudomonas aeruginosa, read-out: MIC
[27] = system: E. faecalis ATCC 29212; test: CLSI broth dilution MIC determination; assay type: cell-based; settings: Enterococcus faecalis, ATCC29212, E. faecalis ATCC 29212 (MP-24); read-out: MIC
[28] = system: E. faecalis Vancomycin-resistant; test: CLSI broth dilution MIC determination; assay type: cell-based; settings: Enterococcus faecalis, E. faecalis Vancomycin-resistant (UNT-039); read-out: MIC
[29] = system: A. baumannii MP-576 Clinical-MDR; test: CLSI broth dilution MIC determination; assay type: cell-based; settings: Acinetobacter baumannii, read-out: MIC

C=C1C(=O)[C@H](C)C[C@@](C)(OC)[C@H](O[C@@H]2O[C@H](C)C[C@H](N(C)C)[C@H]2OC(=O)OC)[C@@H](C)C(=O)C(C)C(=O)O[C@H](CC)[C@@]2(C)OC(=O)N(CCCCN=[N+]=[N-])[C@H]12 (stereo partly drawn)
ring closure, yield of all isomers ([1]; from C=C(C(=O)[C@H](C)C[C@@](C)(OC)[C@H](O[C@@H]1O[C@H](C)C[C@H](N(C)C)[C@H]1OC(=O)OC)[C@@H](C)C1=C(C)C(=O)OC(C)(C)O1)[C@H]1N(CCCCN=[N+]=[N-])C(=O)O[C@]1(C)[C@H](O)CC): 23%

CC[C@H]1OC(=O)[C@H](C)C(=O)[C@H](C)[C@@H](O[C@@H]2O[C@H](C)C[C@H](N(C)C)[C@H]2OC(=O)OC)[C@](C)(OC)C[C@@H](C)C(=O)[C@H](C)[C@H]2N(CCCCN=[N+]=[N-])C(=O)O[C@]12C
ring closure, yield of all isomers ([1]; from CC[C@@H](O)[C@@]1(C)OC(=O)N(CCCCN=[N+]=[N-])[C@@H]1[C@@H](C)C(=O)[C@H](C)C[C@@](C)(OC)[C@H](O[C@@H]1O[C@H](C)C[C@H](N(C)C)[C@H]1OC(=O)OC)[C@@H](C)C1=C(C)C(=O)OC(C)(C)O1, none (thermal, dioxinone to acylketene)): 52%

CC[C@H]1OC(=O)[C@@](C)(F)C(=O)[C@H](C)[C@@H](O[C@@H]2OC(C)CC(N(C)C)C2O)[C@](C)(OC)C[C@@H](C)C(=O)[C@H](C)[C@H]2N(CC#CCn3cc(-c4cccc(N)n4)nn3)C(=O)O[C@]12C (stereo partly drawn) [FSM-100573]
MIC [2]: 2 µg/mL (≈ 2.38 µM) | MIC [3]: 32 µg/mL (≈ 38 µM) | MIC [4]: 4 µg/mL (≈ 4.75 µM) | MIC [5]: 16 µg/mL (≈ 19 µM) | MIC [6]: < 0.03 µg/mL | potency compared with solithromycin [7]: even more potent | MIC [8]: < 0.03 µg/mL | MIC [9]: 64 µg/mL (≈ 76 µM) | MIC [10]: 2 µg/mL (≈ 2.38 µM) | MIC [11]: < 0.03 µg/mL | MIC [12]: 0.06 µg/mL (≈ 0.0713 µM) | MIC [13]: < 0.03 µg/mL | MIC [14]: 16 µg/mL (≈ 19 µM) | MIC [15]: 16 µg/mL (≈ 19 µM) | MIC [16]: 2 µg/mL (≈ 2.38 µM) | MIC [17]: 16 µg/mL (≈ 19 µM) | MIC [18]: 16 µg/mL (≈ 19 µM) | MIC [19]: 0.06 µg/mL (≈ 0.0713 µM) | MIC [20]: 0.06 µg/mL (≈ 0.0713 µM) | MIC [21]: < 0.03 µg/mL | MIC [22]: 8 µg/mL (≈ 9.5 µM) | MIC [23]: 16 µg/mL (≈ 19 µM) | MIC [24]: 64 µg/mL (≈ 76 µM) | MIC [25]: 16 µg/mL (≈ 19 µM) | MIC [26]: 32 µg/mL (≈ 38 µM) | MIC [27]: < 0.03 µg/mL | MIC [28]: 1 µg/mL (≈ 1.19 µM) | MIC [29]: 64 µg/mL (≈ 76 µM)
